Laboratory results taken from patent US9850225B2, “Compounds useful as immunomodulators” (BRISTOL-MYERS SQUIBB COMPANY, priority 2014, dated 2017).

Molecular target: PD-1/PD-L1 interaction (PD-1-Ig / PD-L1-His) (Homo sapiens (Human), UniProt Q9NZQ7)
Assay: PD-1/PD-L1 Homogenous Time-Resolved Fluorescence (HTRF) binding assay
Conditions: PD-1/PD-L1 HTRF binding assay; value given as range class; read-out: Range or IC50
Method in brief: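 HTRF detection used 1 nM europium-cryptate anti-Ig and 20 nM APC anti-His. Compounds first saw 10 nM PD-L1-His for 15 min, and 20 nM PD-1-Ig was then added for another 15 min. Buffer was dPBS plus 0.1% BSA and 0.05% Tween-20. All concentrations are final.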

Chain of PD-1/PD-L1 interaction (PD-1-Ig / PD-L1-His) (Q9NZQ7 other isoform, or with tags, fused parts or gaps): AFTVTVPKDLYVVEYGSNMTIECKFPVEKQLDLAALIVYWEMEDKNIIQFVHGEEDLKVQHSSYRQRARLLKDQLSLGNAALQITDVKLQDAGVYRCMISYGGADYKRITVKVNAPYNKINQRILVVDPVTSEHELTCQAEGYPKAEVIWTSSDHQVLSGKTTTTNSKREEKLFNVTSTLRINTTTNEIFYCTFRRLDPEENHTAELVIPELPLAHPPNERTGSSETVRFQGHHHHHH

How did the IC50 turn out when `C=Cc1cc(CN2CCCC[C@H]2C(=O)O)c(OCc2cccc(C#N)c2)cc1OCc1cccc(-c2ccc3c(c2)OCCO3)c1C` [Example 1293, (S)-1-(2-(3-cyanobenzyloxy)-4-(3-(2,3-dihydrobenzo[b][1,4]dioxin-6-yl) -2-methylbenzyloxy)-5-vinylbenzyl)piperidine-2-carboxylic acid] was run?
Its IC50 is 0.6 to 10 nM.

`CC(=O)NCCNCc1ccc(OCc2cccc(-c3ccccc3)c2C)cc1OCc1cccc2cccnc12` [Example 1074, N-(2-((4-((2-methyl-[1,1′-biphenyl]-3-yl)methoxy)-2-(quinolin-8-ylmethoxy)benzyl)amino)ethyl)acetamide] was tested. Which IC50 did it give?
Its IC50 is 100 to 20000 nM.

For `CC(=O)NCCNCc1ccc(OCc2cccc(-c3ccccc3)c2C)cc1OCc1ccc(-c2ccccc2C#N)cc1` [Example 1089, N-(2-((2-((2′-cyano-[1,1′-biphenyl]-4-yl)methoxy)-4-((2-methyl-[1,1′-biphenyl]-3-yl)methoxy)benzyl)amino)ethyl)acetamide], which IC50 is on record?
The IC50 was 100 to 20000 nM.

`CC(=O)NCCNCc1ccc(OCc2cccc(-c3ccccc3)c2C)cc1OCc1cccc(C)c1F` [Example 1070, N-(2-((2-((2-fluoro-3-methylbenzyl)oxy)-4-((2-methyl-[1,1′-biphenyl]-3-yl)methoxy)benzyl)amino)ethyl)acetamide] was tested. Which IC50 did it give?
Its IC50 is 100 to 20000 nM.

With `CC(=O)NCCNCc1ccc(OCc2cccc(-c3ccccc3)c2C)cc1OCc1ccc(S(C)(=O)=O)cc1` [Example 1084, N-(2-((4-((2-methyl-[1,1′-biphenyl]-3-yl)methoxy)-2-((4-(methylsulfonyl)benzyl)oxy)benzyl)amino)ethyl)acetamide] as the compound, how does the IC50 read?
Its IC50 is 100 to 20000 nM.

How did the IC50 turn out when `CC(=O)NCCNCc1cc(Cl)c(OCc2cccc(-c3ccc4c(c3)OCCO4)c2C)cc1OCc1cncc(Br)c1` [Example 1255, N-(2-(2-((5-bromopyridin-3-yl)methoxy)-5-chloro-4-(3-(2,3-dihydrobenzo[b][1,4]dioxin-6-yl)-2-methylbenzyloxy)benzylamino)ethyl)acetamide] was run?
The IC50 was 0.6 to 10 nM.

`COc1cc(COc2cc(OCc3cccc(-c4ccccc4)c3C)ccc2CNCCNC(C)=O)cc(OC)c1` [Example 1107] was tested. Which IC50 did it give?
The IC50 was 100 to 20000 nM.

Which IC50 does the source give for `Cc1c(COc2cc(OCc3cccc(C#N)c3)c(CNC(Cc3ccc(O)cc3)C(=O)O)cc2Cl)cccc1-c1ccc2c(c1)OCCO2` (stereo not drawn) [Example 1187, 2-((5-chloro-2-((3-cyanobenzyl)oxy)-4-((3-(2,3-dihydrobenzo[b][1,4]dioxin-6-yl)-2-methylbenzyl)oxy)benzyl)amino)-3-(4-hydroxyphenyl)propanoic acid] here?
Its IC50 is 10 to 100 nM.

How did the IC50 turn out when `CC(=O)NCCNCc1c(C)cc(OCc2cccc(-c3ccc4c(c3)OCCO4)c2C)cc1OCc1cncc(C#N)c1` [Example 1005, N-(2-(2-((5-cyanopyridin-3-yl)methoxy)-4-(3-(2,3-dihydrobenzo[b][1,4]dioxin-6-yl)-2-methylbenzyloxy)-6-methylbenzylamino)ethyl)acetamide] was run?
Its IC50 is 0.6 to 10 nM.

Which IC50 does the source give for `Cc1c(COc2cc(OCc3cccc(C#N)c3)c(CN[C@@H](CC[S+](C)[O-])C(=O)O)cc2Cl)cccc1-c1ccc2c(c1)OCCO2` (stereo partly drawn) [Example 1174, (2S)-2-((5-chloro-2-((3-cyanobenzyl)oxy)-4-((3-(2,3-dihydrobenzo[b][1,4]dioxin-6-yl)-2-methylbenzyl)oxy)benzyl)amino)-4-(methylsulfinyl)butanoic acid] here?
Its IC50 is 0.6 to 10 nM.

For `CC(=O)NCCNCc1c(C)cc(OCc2cccc(-c3ccc4c(c3)OCCO4)c2C)cc1OCc1cccc(C#N)c1` [Example 1000, N-(2-(2-(3-cyanobenzyloxy)-4-(3-(2,3-dihydrobenzo[b][1,4]dioxin-6-yl)-2-methylbenzyloxy)-6-methylbenzylamino)ethyl)acetamide], which IC50 is on record?
The IC50 was 10 to 100 nM.

`Cc1cc(CN[C@@](C)(CO)C(=O)O)c(OCc2cncc(C#N)c2)cc1OCc1cccc(-c2ccc3c(c2)OCCO3)c1C#N` [Example 1308, (S)-2-(4-(2-cyano-3-(2,3-dihydrobenzo[b][1,4]dioxin-6-yl)benzyloxy)-2-((5-cyanopyridin-3-yl)methoxy)-5-methylbenzylamino)-3-hydroxy-2-methylpropanoic acid] was tested. Which IC50 did it give?
Its IC50 is 0.6 to 10 nM.
